This note sets out measurements from ChEMBL document CHEMBL5465560, “Selectivity Literature for EUbOPEN Chemogenomic Library” (2024).

Experiment [1] addresses Serine/threonine-protein kinase MARK1 (Homo sapiens) (UniProt Q9P0L2). As to the kind of experiment: Selectivity interaction (Kinase panel (Z-LYTE Assay)) EUB0001632a MARK1. The following applies: at 10 µM.
In experiment [2] the target is Glycogen synthase kinase-3 beta (Homo sapiens, UniProt P49841). As to the kind of experiment: Selectivity interaction (Kinase panel (Z-LYTE Assay)) EUB0001632a GSK3B. To be noted: at 10 µM.
Experiment [3] has as its target T1, Dual specificity protein kinase TTK (Homo sapiens) (UniProt P33981).
T1 sequence (whole entry): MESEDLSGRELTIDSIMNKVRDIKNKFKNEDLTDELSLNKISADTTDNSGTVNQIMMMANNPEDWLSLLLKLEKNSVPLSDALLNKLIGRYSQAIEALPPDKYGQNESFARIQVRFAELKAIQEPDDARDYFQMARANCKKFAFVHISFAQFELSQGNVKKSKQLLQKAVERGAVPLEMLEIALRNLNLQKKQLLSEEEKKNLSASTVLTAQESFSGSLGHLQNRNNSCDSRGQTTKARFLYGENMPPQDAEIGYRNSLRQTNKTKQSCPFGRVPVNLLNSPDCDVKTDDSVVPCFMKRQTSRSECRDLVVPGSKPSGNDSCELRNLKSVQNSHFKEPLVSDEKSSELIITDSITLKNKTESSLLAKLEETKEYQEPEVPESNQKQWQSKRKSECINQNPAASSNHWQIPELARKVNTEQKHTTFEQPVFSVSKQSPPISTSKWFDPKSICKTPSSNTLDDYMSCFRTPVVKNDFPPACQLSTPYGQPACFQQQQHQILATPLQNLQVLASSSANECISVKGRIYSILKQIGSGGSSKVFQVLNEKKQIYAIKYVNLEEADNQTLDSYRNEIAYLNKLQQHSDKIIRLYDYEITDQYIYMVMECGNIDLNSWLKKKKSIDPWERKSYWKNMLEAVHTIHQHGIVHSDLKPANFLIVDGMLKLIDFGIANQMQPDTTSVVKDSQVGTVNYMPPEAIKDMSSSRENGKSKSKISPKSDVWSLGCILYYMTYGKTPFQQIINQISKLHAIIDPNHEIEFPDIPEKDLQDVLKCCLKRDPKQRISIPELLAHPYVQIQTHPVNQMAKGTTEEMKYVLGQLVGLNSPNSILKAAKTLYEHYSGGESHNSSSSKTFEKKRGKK
As to the kind of experiment: Selectivity interaction (KinomeScan (DiscoverX)) EUB0000595a TTK. To be noted: at 10 µM.

Experiment [4] has as its target T2, Tyrosine-protein kinase JAK1 (Homo sapiens, UniProt P23458). As to the kind of experiment: Selectivity interaction (KinomeScan (DiscoverX)) EUB0001619a JAK1. The following applies: at 1 µM.
Experiment [5] concerns the target Serine/threonine-protein kinase SMG1 (Homo sapiens) (UniProt Q96Q15). As to the kind of experiment: Selectivity interaction (ActivX KiNativ screen (ex vivo kinase selectivity in human PBMCs)) EUB0001619a SMG1. The following applies: PBMC, at 1 µM. In kind it is cell-based.
Experiment [6] addresses T3, Serine/threonine-protein kinase ULK3 (Homo sapiens) (UniProt Q6PHR2).
T3 sequence (whole entry): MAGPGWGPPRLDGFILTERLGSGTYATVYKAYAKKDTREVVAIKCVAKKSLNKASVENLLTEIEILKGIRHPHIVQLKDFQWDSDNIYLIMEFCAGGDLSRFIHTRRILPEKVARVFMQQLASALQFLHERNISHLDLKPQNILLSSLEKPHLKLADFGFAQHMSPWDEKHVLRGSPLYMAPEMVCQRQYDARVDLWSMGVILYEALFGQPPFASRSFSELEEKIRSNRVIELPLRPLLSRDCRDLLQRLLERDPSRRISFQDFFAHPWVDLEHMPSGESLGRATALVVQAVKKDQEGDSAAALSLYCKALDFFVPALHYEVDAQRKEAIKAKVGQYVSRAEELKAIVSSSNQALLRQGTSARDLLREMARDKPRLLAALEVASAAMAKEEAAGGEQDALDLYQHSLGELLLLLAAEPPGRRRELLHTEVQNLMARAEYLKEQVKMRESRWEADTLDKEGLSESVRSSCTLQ
As to the kind of experiment: Selectivity interaction (KinomeScan (DiscoverX)) EUB0000666a ULK3. The following applies: at 10 µM.

The target in experiment [7] is T2, Tyrosine-protein kinase JAK1. As to the kind of experiment: Selectivity interaction (KinomeScan (DiscoverX)) EUB0000607a JAK1. The following applies: at 10 µM.
Experiment [8] deals with T4, Serine/threonine-protein kinase 17A (Homo sapiens) (UniProt Q9UEE5).
T4 sequence (whole entry): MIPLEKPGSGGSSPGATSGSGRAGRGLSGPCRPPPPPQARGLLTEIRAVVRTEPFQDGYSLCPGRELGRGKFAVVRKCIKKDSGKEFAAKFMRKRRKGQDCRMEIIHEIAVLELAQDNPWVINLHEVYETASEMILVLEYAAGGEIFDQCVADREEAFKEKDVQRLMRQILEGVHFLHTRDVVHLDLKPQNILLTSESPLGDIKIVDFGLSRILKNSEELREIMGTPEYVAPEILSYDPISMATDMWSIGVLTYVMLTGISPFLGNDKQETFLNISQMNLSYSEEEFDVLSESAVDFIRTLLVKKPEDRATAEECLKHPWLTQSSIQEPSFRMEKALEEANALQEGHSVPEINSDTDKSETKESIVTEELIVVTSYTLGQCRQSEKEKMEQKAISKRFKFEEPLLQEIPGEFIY
To be noted: at 10 µM.

The target of experiment [9] is Protein-tyrosine kinase 6 (Homo sapiens, UniProt Q13882). As to the kind of experiment: Selectivity interaction (KinomeScan (DiscoverX)) EUB0000045b PTK6.
Chain of Protein-tyrosine kinase 6 (Q13882 whole entry, looked up): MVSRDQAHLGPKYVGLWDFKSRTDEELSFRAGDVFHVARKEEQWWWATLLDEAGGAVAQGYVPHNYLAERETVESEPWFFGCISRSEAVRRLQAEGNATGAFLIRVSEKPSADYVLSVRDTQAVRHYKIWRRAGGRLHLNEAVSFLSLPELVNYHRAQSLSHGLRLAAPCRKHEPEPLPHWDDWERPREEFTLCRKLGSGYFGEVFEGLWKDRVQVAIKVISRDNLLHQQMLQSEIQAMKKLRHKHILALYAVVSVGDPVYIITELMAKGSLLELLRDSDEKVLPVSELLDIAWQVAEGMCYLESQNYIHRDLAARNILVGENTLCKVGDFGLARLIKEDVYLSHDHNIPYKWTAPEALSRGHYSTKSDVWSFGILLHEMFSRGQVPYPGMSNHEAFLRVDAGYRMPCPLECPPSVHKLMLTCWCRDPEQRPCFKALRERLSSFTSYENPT
In experiment [10] the target is Tyrosine-protein kinase Yes (Homo sapiens) (UniProt P07947). As to the kind of experiment: Selectivity interaction (KinomeScan (DiscoverX)) EUB0001049a YES1. To be noted: at 1 µM.
Chain of Tyrosine-protein kinase Yes (Homo sapiens) (P07947 2-543 limits assumed): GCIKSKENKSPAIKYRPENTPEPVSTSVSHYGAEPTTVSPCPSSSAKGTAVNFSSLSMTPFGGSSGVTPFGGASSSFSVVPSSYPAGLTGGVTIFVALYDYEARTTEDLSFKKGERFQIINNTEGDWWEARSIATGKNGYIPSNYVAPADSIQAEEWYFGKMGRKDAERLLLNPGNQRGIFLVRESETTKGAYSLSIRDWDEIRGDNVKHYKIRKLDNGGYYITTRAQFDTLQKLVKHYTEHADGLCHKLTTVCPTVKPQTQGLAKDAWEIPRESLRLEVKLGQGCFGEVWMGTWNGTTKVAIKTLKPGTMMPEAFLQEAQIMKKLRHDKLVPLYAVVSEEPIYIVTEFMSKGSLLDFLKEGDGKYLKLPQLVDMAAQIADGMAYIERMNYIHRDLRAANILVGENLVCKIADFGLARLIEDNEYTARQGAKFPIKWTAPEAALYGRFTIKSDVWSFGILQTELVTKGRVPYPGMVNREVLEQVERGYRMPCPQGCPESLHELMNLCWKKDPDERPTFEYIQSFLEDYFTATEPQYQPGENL
Experiment [11] concerns the target STE20-like serine/threonine-protein kinase (Homo sapiens, UniProt Q9H2G2). As to the kind of experiment: Selectivity interaction (KinomeScan (DiscoverX)) EUB0000655a SLK. To be noted: at 10 µM.
Experiment [12] can be described thus: Selectivity interaction (KinomeScan (DiscoverX)) EUB0000655a CDPK1. To be noted: at 10 µM.
The target of experiment [13] is Mitogen-activated protein kinase kinase kinase kinase 1 (Homo sapiens) (UniProt Q92918). As to the kind of experiment: Selectivity interaction (KinomeScan (DiscoverX)) EUB0000618a MAP4K1. The following applies: at 10 µM.
Chain of Mitogen-activated protein kinase kinase kinase kinase 1 (Homo sapiens) (Q92918 whole entry, looked up): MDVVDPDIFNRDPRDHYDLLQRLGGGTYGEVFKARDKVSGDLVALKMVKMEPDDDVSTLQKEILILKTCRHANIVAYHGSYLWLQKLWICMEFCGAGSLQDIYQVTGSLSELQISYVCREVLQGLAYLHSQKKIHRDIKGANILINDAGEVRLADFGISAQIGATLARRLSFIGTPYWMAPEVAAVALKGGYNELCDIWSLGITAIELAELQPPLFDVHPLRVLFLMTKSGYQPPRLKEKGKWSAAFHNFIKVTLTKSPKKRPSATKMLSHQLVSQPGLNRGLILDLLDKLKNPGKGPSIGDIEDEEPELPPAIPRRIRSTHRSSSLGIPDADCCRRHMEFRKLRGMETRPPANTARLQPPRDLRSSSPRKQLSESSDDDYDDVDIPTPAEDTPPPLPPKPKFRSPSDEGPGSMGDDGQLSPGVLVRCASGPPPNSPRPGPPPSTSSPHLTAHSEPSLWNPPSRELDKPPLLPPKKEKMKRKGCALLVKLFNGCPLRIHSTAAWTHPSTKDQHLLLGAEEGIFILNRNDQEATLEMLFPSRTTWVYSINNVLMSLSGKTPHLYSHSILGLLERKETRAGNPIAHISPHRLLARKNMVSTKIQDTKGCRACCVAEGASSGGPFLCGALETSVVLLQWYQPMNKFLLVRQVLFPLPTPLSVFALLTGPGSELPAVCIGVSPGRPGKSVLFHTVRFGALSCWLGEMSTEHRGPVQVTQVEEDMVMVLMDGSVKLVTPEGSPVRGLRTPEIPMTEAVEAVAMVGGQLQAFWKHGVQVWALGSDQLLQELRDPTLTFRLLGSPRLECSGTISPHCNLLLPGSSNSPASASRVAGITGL
The target of experiment [14] is Beta-2 adrenergic receptor (Homo sapiens, UniProt P07550). As to the kind of experiment: Selectivity interaction (Panel of kinases, GPCRs, ion channels and transporters (enzymatic assay)) EUB0000266bCl ADRB2.
Chain of Beta-2 adrenergic receptor (P07550 whole entry, looked up): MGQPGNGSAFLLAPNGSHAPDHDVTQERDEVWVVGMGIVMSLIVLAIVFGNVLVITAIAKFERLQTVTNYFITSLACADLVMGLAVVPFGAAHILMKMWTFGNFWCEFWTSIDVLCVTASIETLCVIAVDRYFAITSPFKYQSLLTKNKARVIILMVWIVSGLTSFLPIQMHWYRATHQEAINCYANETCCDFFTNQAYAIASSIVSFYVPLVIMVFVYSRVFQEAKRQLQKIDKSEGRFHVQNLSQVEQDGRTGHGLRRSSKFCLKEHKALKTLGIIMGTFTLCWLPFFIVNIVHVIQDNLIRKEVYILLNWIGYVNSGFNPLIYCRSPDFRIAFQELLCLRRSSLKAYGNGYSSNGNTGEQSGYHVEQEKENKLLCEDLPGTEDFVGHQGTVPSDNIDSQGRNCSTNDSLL
Experiment [15] deals with Interleukin-1 receptor-associated kinase 1 (Homo sapiens) (UniProt P51617). As to the kind of experiment: Selectivity interaction (KinomeScan (DiscoverX)) EUB0000229b IRAK1. To be noted: at 10 µM.
Chain of Interleukin-1 receptor-associated kinase 1 (Homo sapiens) (P51617 whole entry, looked up): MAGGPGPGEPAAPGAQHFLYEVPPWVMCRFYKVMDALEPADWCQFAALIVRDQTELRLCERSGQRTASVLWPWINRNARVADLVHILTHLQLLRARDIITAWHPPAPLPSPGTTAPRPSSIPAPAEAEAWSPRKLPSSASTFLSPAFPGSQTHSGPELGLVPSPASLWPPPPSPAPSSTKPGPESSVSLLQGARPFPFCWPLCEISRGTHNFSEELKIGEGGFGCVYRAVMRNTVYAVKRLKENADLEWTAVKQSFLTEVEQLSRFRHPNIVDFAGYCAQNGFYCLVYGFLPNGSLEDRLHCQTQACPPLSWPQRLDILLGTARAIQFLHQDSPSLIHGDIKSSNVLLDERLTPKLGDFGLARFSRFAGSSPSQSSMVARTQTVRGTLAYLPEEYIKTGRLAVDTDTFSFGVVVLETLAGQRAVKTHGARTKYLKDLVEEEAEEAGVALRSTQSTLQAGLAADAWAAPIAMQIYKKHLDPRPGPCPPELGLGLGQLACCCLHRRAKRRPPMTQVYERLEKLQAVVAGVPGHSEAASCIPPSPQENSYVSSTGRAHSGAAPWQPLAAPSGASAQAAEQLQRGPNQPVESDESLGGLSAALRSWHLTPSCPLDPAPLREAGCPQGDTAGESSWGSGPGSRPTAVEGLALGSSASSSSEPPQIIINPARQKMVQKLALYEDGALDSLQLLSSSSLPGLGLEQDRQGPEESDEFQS

Bounds are passed on as bounds.

T2 sequence (P23458 whole entry): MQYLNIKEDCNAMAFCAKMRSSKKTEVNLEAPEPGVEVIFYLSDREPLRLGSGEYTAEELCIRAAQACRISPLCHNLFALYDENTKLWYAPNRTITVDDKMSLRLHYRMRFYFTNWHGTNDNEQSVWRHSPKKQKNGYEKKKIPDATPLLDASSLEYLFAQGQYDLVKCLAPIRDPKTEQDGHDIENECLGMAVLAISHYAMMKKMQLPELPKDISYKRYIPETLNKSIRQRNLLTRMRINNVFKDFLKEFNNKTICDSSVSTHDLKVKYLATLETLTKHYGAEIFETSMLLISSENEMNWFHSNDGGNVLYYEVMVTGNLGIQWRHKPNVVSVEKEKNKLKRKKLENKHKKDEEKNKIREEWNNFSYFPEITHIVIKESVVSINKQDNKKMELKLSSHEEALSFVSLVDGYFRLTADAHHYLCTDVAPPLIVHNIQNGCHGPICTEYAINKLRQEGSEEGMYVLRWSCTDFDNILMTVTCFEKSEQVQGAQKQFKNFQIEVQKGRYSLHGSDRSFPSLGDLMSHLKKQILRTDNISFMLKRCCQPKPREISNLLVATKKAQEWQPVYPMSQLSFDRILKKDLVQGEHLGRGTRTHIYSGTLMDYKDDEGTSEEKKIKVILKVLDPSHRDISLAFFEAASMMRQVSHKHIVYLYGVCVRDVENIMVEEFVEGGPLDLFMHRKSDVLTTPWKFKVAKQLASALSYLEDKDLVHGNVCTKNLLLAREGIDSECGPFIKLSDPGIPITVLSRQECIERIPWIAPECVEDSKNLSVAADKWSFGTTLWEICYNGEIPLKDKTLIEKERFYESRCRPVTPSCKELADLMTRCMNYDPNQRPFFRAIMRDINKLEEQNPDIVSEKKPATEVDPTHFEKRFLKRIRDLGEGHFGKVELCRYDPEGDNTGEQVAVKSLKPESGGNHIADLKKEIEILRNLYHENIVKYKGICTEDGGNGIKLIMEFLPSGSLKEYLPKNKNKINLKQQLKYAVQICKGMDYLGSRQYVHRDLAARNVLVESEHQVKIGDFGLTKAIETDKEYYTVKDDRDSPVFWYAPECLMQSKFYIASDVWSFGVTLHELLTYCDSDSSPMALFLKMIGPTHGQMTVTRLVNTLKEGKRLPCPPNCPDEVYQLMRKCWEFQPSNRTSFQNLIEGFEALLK
Chain of Serine/threonine-protein kinase MARK1 (Homo sapiens) (Q9P0L2 whole entry, looked up): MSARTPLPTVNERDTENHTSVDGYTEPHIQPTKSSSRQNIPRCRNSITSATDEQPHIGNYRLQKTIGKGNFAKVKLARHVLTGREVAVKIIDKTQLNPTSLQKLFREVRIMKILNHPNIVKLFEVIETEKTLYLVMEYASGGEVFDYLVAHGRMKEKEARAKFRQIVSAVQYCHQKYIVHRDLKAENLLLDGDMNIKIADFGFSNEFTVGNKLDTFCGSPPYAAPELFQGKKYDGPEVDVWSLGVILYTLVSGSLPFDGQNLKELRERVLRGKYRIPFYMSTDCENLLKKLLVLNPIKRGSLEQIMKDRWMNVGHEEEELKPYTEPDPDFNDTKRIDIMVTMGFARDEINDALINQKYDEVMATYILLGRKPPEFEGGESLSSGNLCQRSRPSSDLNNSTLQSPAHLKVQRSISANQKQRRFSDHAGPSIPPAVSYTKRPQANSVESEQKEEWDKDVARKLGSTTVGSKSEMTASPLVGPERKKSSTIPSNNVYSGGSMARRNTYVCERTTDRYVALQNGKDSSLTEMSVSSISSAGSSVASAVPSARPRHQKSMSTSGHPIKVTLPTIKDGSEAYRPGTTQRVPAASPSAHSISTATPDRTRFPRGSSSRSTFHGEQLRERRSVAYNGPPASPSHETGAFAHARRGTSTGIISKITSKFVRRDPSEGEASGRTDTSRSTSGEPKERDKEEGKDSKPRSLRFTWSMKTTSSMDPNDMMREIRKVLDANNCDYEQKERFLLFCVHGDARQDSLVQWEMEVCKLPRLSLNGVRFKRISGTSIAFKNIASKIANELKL

For `Cn1cc(-n2cnc3c(NCc4nc5cc(Cl)c(Cl)cc5[nH]4)nc(N4CCOCC4)nc32)cn1`, the % of control in experiment [1] was 3.94%; in [2] it was 89.1%. Compound `COCC(=O)NC/C=C/c1ccc2ncnc(Nc3ccc(Oc4ccc(C)nc4)c(C)c3)c2c1` [CP-724714] yielded a % of control in [3] of 80%.

For `N#Cc1cccc(-c2c[nH]c3ncnc(N4CCOCC4)c23)c1`, the % of control in [4] was 100%. Further, the % of inhibition in experiment [5] stood at 13%.

`O=C(NOC[C@H](O)CO)c1ccc(F)c(F)c1Nc1ccc(I)cc1F` had a % of control in experiment [6] of 89%.

For the compound `CNC(=O)Nc1ccc(-c2nc(N3CC4CCC(C3)O4)c3cnn(C4CCC5(CC4)OCCO5)c3n2)cc1`, in experiment [7], the % of control was 83%. In turn, `Cc1cc([C@@H](C)Nc2ccccc2C(=O)O)c2nc(N3CCOCC3)cc(=O)n2c1` [AZD-6482] registered a % of control in experiment [8] of 98%. Turning to `C=CC(=O)Nc1cc(-n2c(=O)ccc3cnc4ccc(-c5ccc(NS(C)(=O)=O)cc5)cc4c32)ccc1C`, the figures for the % of control in [9] (at 1 µM) and in experiment [9] (at 10 µM) were 100% and 77%, respectively.

Compound `COc1cc(Nc2nc(C)cc(-c3cnn4nc(OC)ccc34)n2)cc(C(F)(F)F)c1` came in with a % of control in experiment [10] of 80%. As for `CN(C)CCOc1ccc(-c2nc(-c3ccncc3)c(-c3ccc4c(c3)CC/C4=N\O)[nH]2)cc1`, the results for the % of control in experiment [11] and in [12] were 1.3% and 15%, respectively. On to `O[C@H]1CC[C@H](Nc2ncc3nc(Nc4c(F)cc(F)cc4F)n([C@H]4CCOC4)c3n2)CC1`, for which, in experiment [13], the % of control turned out to be 83%. Compound `CCn1c(-c2nc3cc(C(=O)N4CCCC(N)C4)ccc3n2C)cc2ccccc21` (stereo unspecified) registered a pXC50 in experiment [14] of less than 4.5 M.

In [15], `COc1cc(N(C)c2ccnc3ccc(C(F)(F)F)cc23)cc(OC)c1OC` yielded a % binding of 88%.
